Type in all cases: cell-based
Assay [1] deals with Bcap-37 (human breast cancer cells). As to the kind of experiment: MTT inhibition of cell growth in vitro, Bcap-37. The following applies: Bcap37, Bcap-37, MTT, 48 h, read-out: IC50 values of samples in vitro. The source says: (§1) (1) Cell lines: PANC-1 (human pancreatic cancer cells), SKOV3 (human ovarian cancer cells), MCF-7 (human breast cancer cells), Bcap-37 (human breast cancer cells), SMMC-7721 (human hepatic cancer cells), HepG-2 (human hepatic cancer cells), A549 (human lung cancer cells) and H460 (human lung cancer cells), storaged and passaged maintainably in Research and Evaluation Center for Pharmacology, Shanghai Institute of Pharmaceutical Industry;
(§2) The inhibition effects of samples on the above-mentioned cell lines were detected by using MTT method. The specific procedures were as follows: […]
(§3) (4) Cells in a logarithmic growth stage were trypsinized and washed, then re-suspended in the medium containing 10% calf serum. The number of living cells was counted in Trypan blue dye exclusion method and cell suspensions were adjusted into a density of 2×10^5 cell/ml. […]
(§4) (7) 100 μl of crystal dissolving solution was added into each well and cells were incubated continuously in the incubator overnight, so as to dissolve the resulted formazan crystals sufficiently. Then, the absorbance value was measured at 570 nm for each well.
(§5) (8) Based on absorbance values, inhibition rates on the cell growth were calculated for sample groups of various concentrations. The calculation formula was as follows: (1−mean absorbance of experimental wells/mean absorbance of control wells)×100%

The test system of assay [2] is SMMC-7721 (human hepatic cancer cells). The assay can be described thus: MTT inhibition of cell growth in vitro, SMMC-7721. The conditions noted are these: SMMC-7721, MTT, 48 h, read-out: IC50 values of samples in vitro.
From the text: as §1, §2, §3, §4, §5

For assay [3], the system named is SKOV3 (human ovarian cancer cells). As to the kind of experiment: MTT inhibition of cell growth in vitro, SKOV3. The following applies: SK-OV-3, 48 h, read-out: IC50 values of samples in vitro.
From the text: as §1, §2, §3, §4, §5

For assay [4], the system named is PANC-1 (human pancreatic cancer cells). The assay can be described thus: MTT inhibition of cell growth in vitro, PANC-1. The conditions noted are these: PANC-1, MTT, 48 h, read-out: IC50 values of samples in vitro.
From the text: as §1, §2, §3, §4, §5

In assay [5] the test system is H460 (human lung cancer cells). The assay can be described thus: MTT inhibition of cell growth in vitro, H460. The conditions noted are these: NCI-H460, 48 h, read-out: IC50 values of samples in vitro.
From the text: as §1, §2, §3, §4, §5

The structures appear in SMILES notation. In brackets after ≈: the same amount, converted by molar mass.

One may read the IC50 as the concentration that inhibits the measured activity by half. On to `CC(=O)O[C@H]1C(=O)[C@@]2(C)[C@H]([C@H](OC(=O)c3ccccc3)[C@]3(O)C[C@H](OC(=O)[C@H](O)[C@@H](NC(=O)c4ccccc4)c4ccccc4)C(C)=C1C3(C)C)[C@]1(OC(C)=O)CO[C@@H]1C[C@@H]2O` [Taxol], for which the IC50 in assay [1] worked out at 0.28 µg/mL (≈ 0.328 µM); in assay [2], 0.12 µg/mL (≈ 0.141 µM); in assay [3] it was 0.22 µg/mL (≈ 0.258 µM); in assay [4], 0.44 µg/mL (≈ 0.515 µM); in assay [5] it was 0.49 µg/mL (≈ 0.574 µM).

For the origin of these results see patent US10596218B2, “Coix seed oil containing 16 glycerides, and pharmaceutical preparation and use thereof” (ZHEJIANG KANGLAITE GROUP CO., LTD., priority 2014, dated 2020).
